Data from US12138256B2, “Treatment of cardiopulmonary disorders” (Bayer Aktiengesellschaft, priority 2021, dated 2024).

System: sGC (cGMP)
Assay: Phase I, healthy male subjects, 14 days inhalation: cGMP concentration (C-4.2)
Assay type: in vivo, human
Details: for cGMP change from baseline / cGMP concentration, mean +/− SD: 1000 μg
Experimental: Healthy white male subjects, aged 18 to 45 years and with a body mass index (BMI) above/equal 18.5 and below/equal 29.9 kg/m2 were treated in a clinical pharmacological phase I study for 14 days with inhaled once daily doses of 1000 μg (nominal dose) or Placebo of dry powder of example 4. The subjects inhaled the drug powder from capsules (see under D-1, e.g. tables 17 and 20) inserted into a handheld inhalation device by one deep inhalative breath into the deep parts of the lung. The intended substantial reduction of increased blood pressure in the central pulmonary blood vessels cannot be evaluated in subjects without pathophysiological impairment of lung function. As surrogate for drug concentration in the lung, plasma concentrations over time have been analysed. […] Drug activity/target engagement in healthy men was controlled in the healthy subjects by analysing blood samples for cGMP. Results are shown in as mean in table C4.2.1 and change to baseline in FIG. 76 and table C4.2.2.

[1] = −0 D 09 H 00 M (pretreatment day)
[2] = −0 D 12 H 00 M (pretreatment day)
[3] = −0 D 16 H 00 M (pretreatment day)
[4] = −0 D 18 H 00 M (pretreatment day)
[5] = −0 D 20 H 00 M (pretreatment day)
[6] = −0 D 22 H 00 M (pretreatment day)

In the case of `O=C(O)c1ccc(CCN(CCc2ccccc2OCc2ccc(-c3ccc(C(F)(F)F)cc3)cc2Cl)[C@H]2CCCc3nc(C(=O)O)ccc32)cc1` [example 4, (5S)-{[2-(4-Carboxyphenyl)ethyl][2-(2-{[3-chloro-4′-(trifluoromethyl)biphenyl-4-yl]methoxy}phenyl)-ethyl]amino}-5,6,7,8-tetrahydroquinoline-2-carboxylic acid], the “time until maximum cGMP values were reached” value (1000 μg once daily) is reported as 7 days, the “time until steady state of cGMP concentration” value (1000 μg once daily) is reported as no more than 11 days and the cGMP change from baseline (0 D 02 H 00 M) is reported as 4840 pM. For the same compound, the cGMP concentration, mean +/− SD (0 D 02 H 00 M) was 9170 pM, the cGMP change from baseline (0 D 04 H 00 M) was 7290 pM and the cGMP concentration, mean +/− SD (0 D 04 H 00 M) was 11600 pM. It also gave a cGMP change from baseline (0 D 06 H 00 M) of 9950 pM, a cGMP concentration, mean +/− SD (0 D 06 H 00 M) of 14300 pM and a cGMP change from baseline (0 D 08 H 00 M) of 10600 pM. It also gave a cGMP concentration, mean +/− SD (0 D 08 H 00 M) of 14900 pM, a cGMP change from baseline (0 D 12 H 00 M) of 7530 pM and a cGMP concentration, mean +/− SD (0 D 12 H 00 M) of 11800 pM. For the same compound, the cGMP change from baseline (0 D 15 H 00 M) was 6740 pM, the cGMP concentration, mean +/− SD (0 D 15 H 00 M) was 11100 pM and the cGMP change from baseline (1 D 00 H 00 M) was 2980 pM. For the same compound, the cGMP concentration, mean +/− SD (1 D 00 H 00 M) was 7310 pM, the cGMP change from baseline (2 D 00 H 00 M) was 4550 pM and the cGMP concentration, mean +/− SD (2 D 00 H 00 M) was 8880 pM. The cGMP change from baseline (2 D 03 H 00 M) was 13000 pM, the cGMP concentration, mean +/− SD (2 D 03 H 00 M) was 17300 pM and the cGMP change from baseline (2 D 08 H 00 M) was 16400 pM. It also gave a cGMP concentration, mean +/− SD (2 D 08 H 00 M) of 20800 pM, a cGMP change from baseline (2 D 12 H 00 M) of 12600 pM and a cGMP concentration, mean +/− SD (2 D 12 H 00 M) of 16900 pM. It also gave a cGMP change from baseline (3 D 00 H 00 M) of 5160 pM, a cGMP concentration, mean +/− SD (3 D 00 H 00 M) of 9490 pM and a cGMP change from baseline (4 D 00 H 00 M) of 6360 pM. For the same compound, the cGMP concentration, mean +/− SD (4 D 00 H 00 M) was 10700 pM, the cGMP change from baseline (5 D 00 H 00 M) was 5920 pM and the cGMP concentration, mean +/− SD (5 D 00 H 00 M) was 10300 pM. It also gave a cGMP change from baseline (6 D 00 H 00 M) of 5090 pM, a cGMP concentration, mean +/− SD (6 D 00 H 00 M) of 9420 pM and a cGMP change from baseline (6 D 03 H 00 M) of 13400 pM. It also gave a cGMP concentration, mean +/− SD (6 D 03 H 00 M) of 17700 pM, a cGMP change from baseline (6 D 08 H 00 M) of 20100 pM and a cGMP concentration, mean +/− SD (6 D 08 H 00 M) of 24500 pM. It also gave a cGMP change from baseline (6 D 12 H 00 M) of 13900 pM, a cGMP concentration, mean +/− SD (6 D 12 H 00 M) of 18200 pM and a cGMP change from baseline (7 D 00 H 00 M) of 6180 pM. The cGMP concentration, mean +/− SD (7 D 00 H 00 M) was 10500 pM, the cGMP change from baseline (8 D 00 H 00 M) was 6200 pM and the cGMP concentration, mean +/− SD (8 D 00 H 00 M) was 10500 pM. The cGMP change from baseline (9 D 00 H 00 M) was 6580 pM, the cGMP concentration, mean +/− SD (9 D 00 H 00 M) was 10900 pM and the cGMP change from baseline (10 D 00 H 00 M) was 6450 pM. For the same compound, the cGMP concentration, mean +/− SD (10 D 00 H 00 M) was 10800 pM, the cGMP change from baseline (10 D 03 H 00 M) was 12700 pM and the cGMP concentration, mean +/− SD (10 D 03 H 00 M) was 17100 pM. It also gave a cGMP change from baseline (10 D 08 H 00 M) of 17500 pM, a cGMP concentration, mean +/− SD (10 D 08 H 00 M) of 21900 pM and a cGMP change from baseline (10 D 12 H 00 M) of 13000 pM. It also gave a cGMP concentration, mean +/− SD (10 D 12 H 00 M) of 17300 pM, a cGMP change from baseline (11 D 00 H 00 M) of 6940 pM and a cGMP concentration, mean +/− SD (11 D 00 H 00 M) of 11300 pM. The cGMP change from baseline (12 D 00 H 00 M) was 8060 pM, the cGMP concentration, mean +/− SD (12 D 00 H 00 M) was 12400 pM and the cGMP change from baseline (12 D 22 H 00 M) was 6950 pM. It also gave a cGMP concentration, mean +/− SD (12 D 22 H 00 M) of 11300 pM, a cGMP change from baseline (13 D 02 H 00 M) of 9120 pM and a cGMP concentration, mean +/− SD (13 D 02 H 00 M) of 13400 pM. For the same compound, the cGMP change from baseline (13 D 04 H 00 M) was 12900 pM, the cGMP concentration, mean +/− SD (13 D 04 H 00 M) was 17300 pM and the cGMP change from baseline (13 D 06 H 00 M) was 17000 pM. It also gave a cGMP concentration, mean +/− SD (13 D 06 H 00 M) of 21400 pM, a cGMP change from baseline (13 D 08 H 00 M) of 17700 pM and a cGMP concentration, mean +/− SD (13 D 08 H 00 M) of 22000 pM. It also gave a cGMP change from baseline (13 D 12 H 00 M) of 12900 pM, a cGMP concentration, mean +/− SD (13 D 12 H 00 M) of 17200 pM and a cGMP change from baseline (13 D 15 H 00 M) of 12100 pM. The cGMP concentration, mean +/− SD (13 D 15 H 00 M) was 16400 pM, the cGMP change from baseline (14 D 00 H 00 M) was 5410 pM and the cGMP concentration, mean +/− SD (14 D 00 H 00 M) was 9740 pM. The cGMP change from baseline (15 D 00 H 00 M) was 2520 pM, the cGMP concentration, mean +/− SD (15 D 00 H 00 M) was 6850 pM and the cGMP change from baseline (15 D 12 H 00 M) was 3040 pM. The cGMP concentration, mean +/− SD (15 D 12 H 00 M) was 7370 pM, the cGMP change from baseline (16 D 00 H 00 M) was 2000 pM and the cGMP concentration, mean +/− SD (16 D 00 H 00 M) was 6330 pM. For the same compound, the cGMP change from baseline (16 D 12 H 00 M) was 2410 pM, the cGMP concentration, mean +/− SD (16 D 12 H 00 M) was 6740 pM and the cGMP change from baseline (17 D 00 H 00 M) was 400 pM. It also gave a cGMP concentration, mean +/− SD (17 D 00 H 00 M) of 4730 pM, a cGMP change from baseline (20 D 00 H 00 M) of 1220 pM and a cGMP concentration, mean +/− SD (20 D 00 H 00 M) of 5520 pM. For the same compound, the cGMP change from baseline (FOLLOW-UP) was 1520 pM, the cGMP concentration, mean +/− SD (FOLLOW-UP) was 5850 pM and the cGMP concentration, mean +/− SD (−0 D 02 H 00 M (prior to first inhalation)) was 4330 pM. The cGMP change from baseline [1] was 224 pM, the cGMP concentration, mean +/− SD [1] was 5490 pM and the cGMP change from baseline [2] was 306 pM. The cGMP concentration, mean +/− SD [2] was 5570 pM, the cGMP change from baseline [3] was 676 pM and the cGMP concentration, mean +/− SD [3] was 5940 pM. The “cGMP change from baseline” value [4] was −252.9 +/− 1345.9, the cGMP concentration, mean +/− SD [4] was 5010 pM and the “cGMP change from baseline” value [5] was −952.9 +/− 1984.7. For the same compound, the cGMP concentration, mean +/− SD [5] was 4310 pM, the “cGMP change from baseline” value [6] was −100.0 +/− 1403.1 and the cGMP concentration, mean +/− SD [6] was 5160 pM. For the same compound, the cGMP concentration, mean +/− SD (−1 D 02 H 00 M (pretreatment day)) was 5260 pM.
